# Experimental data published in US20230085307A1, “PYRIDAZINONE COMPOUND AND HERBICIDE” (NISSAN CHEMICAL CORPORATION, priority 2019, published 2023).
# Test system: barnyard grass
# Assay: Test Example 3: herbicidal effect by foliage application, Wagner pot (Table 18, symbol H)
# Assay type: in vivo, barnyard grass (Echinochloa crus-galli)
# Details: 320 g/ha
# How it was run: (§1)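 Plants were sown in alluvial soil held under 0.1–0.5 cm standing water and grown 14 days in a greenhouse at 25–30 °C. An emulsifiable formulation, water-diluted to the set dose, was then sprayed onto the foliage, and effects were scored three weeks later using previously defined criteria.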
row,SMILES,herbicidal effect on barnyard grass (H)
1,CC(=O)COc1ccc(-c2sc3cc(F)c(F)cc3c2-c2c(O)c(C)nn(C)c2=O)cc1 [5-023],4 (Herbicidal rate of 70% or more and less than 90%)

# Test system: Chinese sprangletop
# Assay: Test Example 3: herbicidal effect by foliage application, Wagner pot (Table 18, symbol D)
# Assay type: in vivo, chinese sprangletop (Leptochloa chinensis)
# Details: 320 g/ha
# How it was run: as §1
row,SMILES,herbicidal effect on Chinese sprangletop (D)
1,CC(=O)COc1ccc(-c2sc3cc(F)c(F)cc3c2-c2c(O)c(C)nn(C)c2=O)cc1 [5-023],3 (Herbicidal rate of 40% or more and less than 70%)

# Test system: rice flat sedge
# Assay: Test Example 3: herbicidal effect by foliage application, Wagner pot (Table 18, symbol E)
# Assay type: in vivo, rice flat sedge (Cyperus iria)
# Details: 320 g/ha
# How it was run: as §1
row,SMILES,herbicidal effect on rice flat sedge (E)
1,CC(=O)COc1ccc(-c2sc3cc(F)c(F)cc3c2-c2c(O)c(C)nn(C)c2=O)cc1 [5-023],0 (Herbicidal rate of 5% or less (almost no effect))

# Test system: southern crabgrass
# Assay: Test Example 4: herbicidal effect by soil treatment (Table 19, symbol F)
# Assay type: in vivo, southern crabgrass (Digitaria ciliaris)
# Details: amount of applied herbicide 320 g/ha
# How it was run: (§2)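 Soil-surface application: an emulsion agent diluted with water to the predetermined dose is sprayed uniformly over seeds lying under roughly 1.5 cm of sterilized diluvial soil. Boxes stay in a greenhouse at 25° C. to 30° C. Three weeks later, each species is graded on previously defined criteria.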
row,SMILES,"F: southern crabgrass, herbicidal effect grade"
1,CC(=O)COc1ccc(-c2sc3cc(F)c(F)cc3c2-c2c(O)c(C)nn(C)c2=O)cc1 [5-023],0 (Herbicidal rate of 5% or less (almost no effect))

# Test system: green foxtail
# Assay: Test Example 4: herbicidal effect by soil treatment (Table 19, symbol G)
# Assay type: in vivo, green foxtail (Setaria viridis)
# Details: amount of applied herbicide 320 g/ha
# How it was run: as §2
row,SMILES,"G: green foxtail, herbicidal effect grade"
1,CC(=O)COc1ccc(-c2sc3cc(F)c(F)cc3c2-c2c(O)c(C)nn(C)c2=O)cc1 [5-023],0 (Herbicidal rate of 5% or less (almost no effect))

# Test system: barnyard grass
# Assay: Test Example 4: herbicidal effect by soil treatment (Table 19, symbol H)
# Assay type: in vivo, barnyard grass (Echinochloa crus-galli)
# Details: amount of applied herbicide 320 g/ha
# How it was run: as §2
row,SMILES,"H: barnyard grass, herbicidal effect grade"
1,CC(=O)COc1ccc(-c2sc3cc(F)c(F)cc3c2-c2c(O)c(C)nn(C)c2=O)cc1 [5-023],0 (Herbicidal rate of 5% or less (almost no effect))

# Test system: wild oat
# Assay: Test Example 4: herbicidal effect by soil treatment (Table 19, symbol I)
# Assay type: in vivo, wild oat (Avena fatua)
# Details: amount of applied herbicide 320 g/ha
# How it was run: as §2
row,SMILES,"I: wild oat, herbicidal effect grade"
1,CC(=O)COc1ccc(-c2sc3cc(F)c(F)cc3c2-c2c(O)c(C)nn(C)c2=O)cc1 [5-023],0 (Herbicidal rate of 5% or less (almost no effect))

# Test system: blackgrass
# Assay: Test Example 4: herbicidal effect by soil treatment (Table 19, symbol J)
# Assay type: in vivo, blackgrass (Alopecurus myosuroides)
# Details: amount of applied herbicide 320 g/ha
# How it was run: as §2
row,SMILES,"J: blackgrass, herbicidal effect grade"
1,CC(=O)COc1ccc(-c2sc3cc(F)c(F)cc3c2-c2c(O)c(C)nn(C)c2=O)cc1 [5-023],0 (Herbicidal rate of 5% or less (almost no effect))

# Test system: Italian ryegrass
# Assay: Test Example 4: herbicidal effect by soil treatment (Table 19, symbol K)
# Assay type: in vivo, Italian ryegrass (Lolium multiflorum)
# Details: amount of applied herbicide 320 g/ha
# How it was run: as §2
row,SMILES,"K: Italian ryegrass, herbicidal effect grade"
1,CC(=O)COc1ccc(-c2sc3cc(F)c(F)cc3c2-c2c(O)c(C)nn(C)c2=O)cc1 [5-023],0 (Herbicidal rate of 5% or less (almost no effect))

# Test system: windgrass
# Assay: Test Example 4: herbicidal effect by soil treatment (Table 19, symbol L)
# Assay type: in vivo, windgrass (Apera spica-venti)
# Details: amount of applied herbicide 320 g/ha
# How it was run: as §2
row,SMILES,"L: windgrass, herbicidal effect grade"
1,CC(=O)COc1ccc(-c2sc3cc(F)c(F)cc3c2-c2c(O)c(C)nn(C)c2=O)cc1 [5-023],0 (Herbicidal rate of 5% or less (almost no effect))

# Test system: velvetleaf
# Assay: Test Example 4: herbicidal effect by soil treatment (Table 19, symbol M)
# Assay type: in vivo, velvetleaf (Abutilon theophrasti)
# Details: amount of applied herbicide 320 g/ha
# How it was run: as §2
row,SMILES,"M: velvetleaf, herbicidal effect grade"
1,CC(=O)COc1ccc(-c2sc3cc(F)c(F)cc3c2-c2c(O)c(C)nn(C)c2=O)cc1 [5-023],0 (Herbicidal rate of 5% or less (almost no effect))

# Test system: redroot pigweed
# Assay: Test Example 4: herbicidal effect by soil treatment (Table 19, symbol N)
# Assay type: in vivo, redroot pigweed (Amaranthus retroflexus)
# Details: amount of applied herbicide 320 g/ha
# How it was run: as §2
row,SMILES,"N: redroot pigweed, herbicidal effect grade"
1,CC(=O)COc1ccc(-c2sc3cc(F)c(F)cc3c2-c2c(O)c(C)nn(C)c2=O)cc1 [5-023],3 (Herbicidal rate of 40% or more and less than 70%)

# Test system: lambsquarters
# Assay: Test Example 4: herbicidal effect by soil treatment (Table 19, symbol O)
# Assay type: in vivo, lambsquarters (Chenopodium album)
# Details: amount of applied herbicide 320 g/ha
# How it was run: as §2
row,SMILES,"O: lambsquarters, herbicidal effect grade"
1,CC(=O)COc1ccc(-c2sc3cc(F)c(F)cc3c2-c2c(O)c(C)nn(C)c2=O)cc1 [5-023],2 (Herbicidal rate of 20% or more and less than 40%)

# Test system: chickweed
# Assay: Test Example 4: herbicidal effect by soil treatment (Table 19, symbol P)
# Assay type: in vivo, common chickweed (Stellaria media)
# Details: amount of applied herbicide 320 g/ha
# How it was run: as §2
row,SMILES,"P: chickweed, herbicidal effect grade"
1,CC(=O)COc1ccc(-c2sc3cc(F)c(F)cc3c2-c2c(O)c(C)nn(C)c2=O)cc1 [5-023],3 (Herbicidal rate of 40% or more and less than 70%)

# Test system: persian speedwell
# Assay: Test Example 4: herbicidal effect by soil treatment (Table 19, symbol R)
# Assay type: in vivo, Persian speedwell (Veronica persica)
# Details: amount of applied herbicide 320 g/ha
# How it was run: as §2
row,SMILES,"R: persian speedwell, herbicidal effect grade"
1,CC(=O)COc1ccc(-c2sc3cc(F)c(F)cc3c2-c2c(O)c(C)nn(C)c2=O)cc1 [5-023],0 (Herbicidal rate of 5% or less (almost no effect))

# Test system: southern crabgrass
# Assay: Test Example 5: herbicidal effect by foliage application, plastic box (Table 20, symbol F)
# Assay type: in vivo, southern crabgrass (Digitaria ciliaris)
# Details: amount of applied herbicide 320 g/ha; foliage application after 14-day growth; evaluated three weeks after application
# How it was run: (§3)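 Sow seeds spot-wise in sterilized diluvial soil; cover with ~1.5 cm soil. Grow 14 days in greenhouse, 25° C. to 30° C. Spray foliage with emulsion diluted to predetermined amount. Rate effect after 3 weeks.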
row,SMILES,"Herbicidal effect by foliage application, F: southern crabgrass"
1,CC(=O)COc1ccc(-c2sc3cc(F)c(F)cc3c2-c2c(O)c(C)nn(C)c2=O)cc1 [5-023],0 (Herbicidal rate of 5% or less (almost no effect))

# Test system: green foxtail
# Assay: Test Example 5: herbicidal effect by foliage application, plastic box (Table 20, symbol G)
# Assay type: in vivo, green foxtail (Setaria viridis)
# Details: amount of applied herbicide 320 g/ha; foliage application after 14-day growth; evaluated three weeks after application
# How it was run: as §3
row,SMILES,"Herbicidal effect by foliage application, G: green foxtail"
1,CC(=O)COc1ccc(-c2sc3cc(F)c(F)cc3c2-c2c(O)c(C)nn(C)c2=O)cc1 [5-023],4 (Herbicidal rate of 70% or more and less than 90%)

# Test system: barnyard grass
# Assay: Test Example 5: herbicidal effect by foliage application, plastic box (Table 20, symbol H)
# Assay type: in vivo, barnyard grass (Echinochloa crus-galli)
# Details: amount of applied herbicide 320 g/ha; foliage application after 14-day growth; evaluated three weeks after application
# How it was run: as §3
row,SMILES,"Herbicidal effect by foliage application, H: barnyard grass"
1,CC(=O)COc1ccc(-c2sc3cc(F)c(F)cc3c2-c2c(O)c(C)nn(C)c2=O)cc1 [5-023],1 (Herbicidal rate of 5% or more and less than 20%)

# Test system: wild oat
# Assay: Test Example 5: herbicidal effect by foliage application, plastic box (Table 20, symbol I)
# Assay type: in vivo, wild oat (Avena fatua)
# Details: amount of applied herbicide 320 g/ha; foliage application after 14-day growth; evaluated three weeks after application
# How it was run: as §3
row,SMILES,"Herbicidal effect by foliage application, I: wild oat"
1,CC(=O)COc1ccc(-c2sc3cc(F)c(F)cc3c2-c2c(O)c(C)nn(C)c2=O)cc1 [5-023],0 (Herbicidal rate of 5% or less (almost no effect))

# Test system: blackgrass
# Assay: Test Example 5: herbicidal effect by foliage application, plastic box (Table 20, symbol J)
# Assay type: in vivo, blackgrass (Alopecurus myosuroides)
# Details: amount of applied herbicide 320 g/ha; foliage application after 14-day growth; evaluated three weeks after application
# How it was run: as §3
row,SMILES,"Herbicidal effect by foliage application, J: blackgrass"
1,CC(=O)COc1ccc(-c2sc3cc(F)c(F)cc3c2-c2c(O)c(C)nn(C)c2=O)cc1 [5-023],0 (Herbicidal rate of 5% or less (almost no effect))

# Test system: Italian ryegrass
# Assay: Test Example 5: herbicidal effect by foliage application, plastic box (Table 20, symbol K)
# Assay type: in vivo, Italian ryegrass (Lolium multiflorum)
# Details: amount of applied herbicide 320 g/ha; foliage application after 14-day growth; evaluated three weeks after application
# How it was run: as §3
row,SMILES,"Herbicidal effect by foliage application, K: Italian ryegrass"
1,CC(=O)COc1ccc(-c2sc3cc(F)c(F)cc3c2-c2c(O)c(C)nn(C)c2=O)cc1 [5-023],0 (Herbicidal rate of 5% or less (almost no effect))

# Test system: windgrass
# Assay: Test Example 5: herbicidal effect by foliage application, plastic box (Table 20, symbol L)
# Assay type: in vivo, windgrass (Apera spica-venti)
# Details: amount of applied herbicide 320 g/ha; foliage application after 14-day growth; evaluated three weeks after application
# How it was run: as §3
row,SMILES,"Herbicidal effect by foliage application, L: windgrass"
1,CC(=O)COc1ccc(-c2sc3cc(F)c(F)cc3c2-c2c(O)c(C)nn(C)c2=O)cc1 [5-023],0 (Herbicidal rate of 5% or less (almost no effect))

# Test system: velvetleaf
# Assay: Test Example 5: herbicidal effect by foliage application, plastic box (Table 20, symbol M)
# Assay type: in vivo, velvetleaf (Abutilon theophrasti)
# Details: amount of applied herbicide 320 g/ha; foliage application after 14-day growth; evaluated three weeks after application
# How it was run: as §3
row,SMILES,"Herbicidal effect by foliage application, M: velvetleaf"
1,CC(=O)COc1ccc(-c2sc3cc(F)c(F)cc3c2-c2c(O)c(C)nn(C)c2=O)cc1 [5-023],5 (Herbicidal rate of 90% or more (almost completely withered))

# Test system: redroot pigweed
# Assay: Test Example 5: herbicidal effect by foliage application, plastic box (Table 20, symbol N)
# Assay type: in vivo, redroot pigweed (Amaranthus retroflexus)
# Details: amount of applied herbicide 320 g/ha; foliage application after 14-day growth; evaluated three weeks after application
# How it was run: as §3
row,SMILES,"Herbicidal effect by foliage application, N: redroot pigweed"
1,CC(=O)COc1ccc(-c2sc3cc(F)c(F)cc3c2-c2c(O)c(C)nn(C)c2=O)cc1 [5-023],5 (Herbicidal rate of 90% or more (almost completely withered))

# Test system: lambsquarters
# Assay: Test Example 5: herbicidal effect by foliage application, plastic box (Table 20, symbol O)
# Assay type: in vivo, lambsquarters (Chenopodium album)
# Details: amount of applied herbicide 320 g/ha; foliage application after 14-day growth; evaluated three weeks after application
# How it was run: as §3
row,SMILES,"Herbicidal effect by foliage application, O: lambsquarters"
1,CC(=O)COc1ccc(-c2sc3cc(F)c(F)cc3c2-c2c(O)c(C)nn(C)c2=O)cc1 [5-023],3 (Herbicidal rate of 40% or more and less than 70%)

# Test system: chickweed
# Assay: Test Example 5: herbicidal effect by foliage application, plastic box (Table 20, symbol P)
# Assay type: in vivo, common chickweed (Stellaria media)
# Details: amount of applied herbicide 320 g/ha; foliage application after 14-day growth; evaluated three weeks after application
# How it was run: as §3
row,SMILES,"Herbicidal effect by foliage application, P: chickweed"
1,CC(=O)COc1ccc(-c2sc3cc(F)c(F)cc3c2-c2c(O)c(C)nn(C)c2=O)cc1 [5-023],5 (Herbicidal rate of 90% or more (almost completely withered))

# Test system: persian speedwell
# Assay: Test Example 5: herbicidal effect by foliage application, plastic box (Table 20, symbol R)
# Assay type: in vivo, Persian speedwell (Veronica persica)
# Details: amount of applied herbicide 320 g/ha; foliage application after 14-day growth; evaluated three weeks after application
# How it was run: as §3
row,SMILES,"Herbicidal effect by foliage application, R: persian speedwell"
1,CC(=O)COc1ccc(-c2sc3cc(F)c(F)cc3c2-c2c(O)c(C)nn(C)c2=O)cc1 [5-023],3 (Herbicidal rate of 40% or more and less than 70%)
